From patent publication US11076597B2, “High stress resistant plant growth regulator and preparation method and use thereof” (SHANGHAI INSTITUTES FOR BIOLOGICAL SCIENCES, CHINESE …, priority 2015, dated 2021)
Where two headings read alike, the source gives them in different places.

How the values were obtained:
[1] = target: T1, PYL1 receptor-HAB1 protein phosphatase complex (Arabidopsis thaliana, UniProt Q8VZS8); experiment: AlphaScreen assay: promotion of PYL1 receptor binding to PP2C protein phosphatase HAB1
T1 construct: made in house; host or cells: E. coli BL21 (DE3)
T1 sequence (Q8VZS8 36-211): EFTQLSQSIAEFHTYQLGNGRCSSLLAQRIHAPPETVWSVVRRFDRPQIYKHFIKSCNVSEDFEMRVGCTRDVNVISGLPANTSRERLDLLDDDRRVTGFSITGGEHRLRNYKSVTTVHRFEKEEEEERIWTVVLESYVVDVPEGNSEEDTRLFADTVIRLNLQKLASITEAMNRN
T1 sequence (Q9CAJ0 172-511 partner limits assumed): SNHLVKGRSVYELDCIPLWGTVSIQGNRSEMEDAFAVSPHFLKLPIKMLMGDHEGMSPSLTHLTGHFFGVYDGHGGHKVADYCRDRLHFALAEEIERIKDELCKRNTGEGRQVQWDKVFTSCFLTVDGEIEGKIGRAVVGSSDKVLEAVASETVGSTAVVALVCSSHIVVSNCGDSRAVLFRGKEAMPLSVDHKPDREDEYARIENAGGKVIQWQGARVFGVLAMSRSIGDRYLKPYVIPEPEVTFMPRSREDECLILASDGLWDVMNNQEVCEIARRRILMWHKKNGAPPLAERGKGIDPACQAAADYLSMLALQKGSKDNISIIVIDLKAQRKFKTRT
Excerpt: (§1) The construction method of recombinant plasmids for the Arabidopsis thaliana genes PYL1 (amino acid sequence 36-211), PYL2 (amino acid sequence 14-188) with dual tags of 6×His and SUMO sequence and the Arabidopsis thaliana gene HAB1 (amino acid sequence 172-511) with the Biotin tag sequence is described in detail in “A gate-latch-lock mechanism for hormone signaling by abscisic acid receptors” (Nature, Vol 462, 2009). The construction method of recombinant plasmids for PYR1 and PYL7 (whole gene coding sequence) and Soybean GmPYL6 and rice OsPYL2 with dual tags of 6×His and SUMO sequence is the same as that for Arabidopsis PYL2.
(§2) The above recombinant plasmid is transformed into competent cell of E. coli BL21 (DE3) (purchased from NEB company), and inoculated into 200 ml of LB liquid medium containing Amp resistance (purchased from OXOID company) and cultured overnight at 37° C. at 200 rpm; and inoculated into 2 L of LB liquid medium containing Amp resistance at a ratio of 1:50-1:100 for an extended culture, and cultured at 37° C., 200 rpm for 3-4 hours, and at a low temperature of 16° C. until OD600 is about 0.8-1.0. Recombinant plasmids for PYR1/PYL1/PYL2/PYL7/GmPYL6/OsPYL2 with dual tags of 6×His and SUMO sequence were induced overnight with 100 μM of IPTG while HAB1 recombinant plasmid with the Biotin tag sequence was induced simultaneously with 100 μM of IPTG and 40 μM of biotin.
(§3) After 16 hours of induction, the bacterial solution was centrifuged at 4000 rpm for 20 minutes at 4° C. in a low-speed high-capacity centrifuge, and the bacteria cells were collected. Bacteria cells were resuspended in 50 ml of extraction buffer (containing 20 mM Tris, pH 8.0, 200 mM NaCl and 10% (v/v) glycerol) for per 2 L of bacterial solution and then subjected to pressure-breaking at […] and 4° C. for 3-5 times. The broken cells were subjected to ultracentrifugation, centrifuged at 16000 rpm for 30 minutes, and this process was repeated twice. The supernatant was collected and subjected to an affinity chromatography column. […]

[2] = target: T2, PYL7 receptor-HAB1 protein phosphatase complex (Arabidopsis thaliana, UniProt Q1ECF1); experiment: AlphaScreen assay: promotion of PYL7 receptor binding to PP2C protein phosphatase HAB1
T2 construct: made in house; host or cells: E. coli BL21 (DE3)
T2 sequence (Q1ECF1 1-211): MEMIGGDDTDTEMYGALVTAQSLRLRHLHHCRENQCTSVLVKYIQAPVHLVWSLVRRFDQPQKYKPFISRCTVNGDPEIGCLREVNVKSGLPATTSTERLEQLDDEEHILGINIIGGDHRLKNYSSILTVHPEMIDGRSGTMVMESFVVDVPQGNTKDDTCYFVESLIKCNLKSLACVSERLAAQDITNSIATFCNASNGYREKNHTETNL
T2 sequence (Q9CAJ0 172-511 partner limits assumed): T1 sequence (Q9CAJ0 172-511 partner limits assumed)
Excerpt: as §1, §2, §3

[3] = target: T3, PYR1 receptor-HAB1 protein phosphatase complex (Arabidopsis thaliana, UniProt O49686); experiment: AlphaScreen assay: promotion of PYR1 receptor binding to PP2C protein phosphatase HAB1; details: 6×His-SUMO-tagged PYR1 (whole coding sequence), Biotin-tagged HAB1 (aa 172-511), 100 nM each, pH 7.4, 1.5 h room temperature
T3 construct: made in house; host or cells: E. coli BL21 (DE3)
T3 sequence (O49686 1-191): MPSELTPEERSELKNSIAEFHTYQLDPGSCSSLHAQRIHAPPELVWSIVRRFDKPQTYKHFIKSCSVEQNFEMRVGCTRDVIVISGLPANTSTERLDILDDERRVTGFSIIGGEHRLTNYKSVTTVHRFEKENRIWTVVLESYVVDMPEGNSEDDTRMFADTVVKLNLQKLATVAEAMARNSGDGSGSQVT
T3 sequence (Q9CAJ0 172-511 partner limits assumed): T1 sequence (Q9CAJ0 172-511 partner limits assumed)
Excerpt: as §1, §2
After 16 hours of induction, the bacterial solution was centrifuged at 4000 rpm for 20 minutes at 4° C. in a low-speed high-capacity centrifuge, and the bacteria cells were collected. Bacteria cells were resuspended in 50 ml of extraction buffer (containing 20 mM Tris, pH 8.0, 200 mM NaCl and 10% (v/v) glycerol) for per 2 L of bacterial solution and then subjected to pressure-breaking at […] and 4° C. for 3-5 times. The broken cells were subjected to ultracentrifugation, centrifuged at 16000 rpm for 30 minutes, and this process was repeated twice. The supernatant was collected and subjected to an affinity chromatography column.
For PYR/PYL proteins with dual tags of 6×His and SUMO sequences, 50 ml of affinity chromatography Ni column (50 ml Ni-NTA column, available from GE) was used. Firstly, the column was equilibrated with 600 ml of 10% buffer B (containing 20 mM Tris, PH 8.0, 200 mM NaCl, 500 mM imidazole and 10% glycerol), and then eluted with 200 ml of 50% buffer B and finally eluted with 100 ml of 100% buffer B. Proteins for crystal analysis were mixed with ulp1 enzyme at a molar ratio of 1000:1 for enzymatic dialysis overnight. The digested proteins were subjected to affinity chromatography on a Ni column once more. The collected solution was subjected to a HiLoad 26/60 Superdex200 gel filtration column (commercially available from GE) and eluted with an elution solution (containing 25 mM Tris, pH 8.0, 200 mM ammonium acetate, 1 mM dithiotreitol and 1 mM EDTA) to further separate and purify the protein.
For a HAB1 protein with a Biotin tag sequence, it was subjected to a 50 ml MBP affinity column (available from GE). The column was firstly equilibrated with 600 ml of 10% buffer C (containing 20 mM Tris, pH 8.0, 200 mM NaCl, 10 mM Maltose and 10% Glycerol), and eluted with 200 ml of 50% buffer C and finally eluted with 100 ml of 100% buffer C. […]

[4] = FIG. 2b, 6×His-SUMO-tagged PYL1 (aa 36-211), Biotin-tagged HAB1 (aa 172-511), 100 nM each, pH 7.4, 1.5 h room temperature, read-out: EC50
[5] = FIG. 2d, 6×His-SUMO-tagged PYL7 (whole coding sequence), Biotin-tagged HAB1 (aa 172-511), 100 nM each, pH 7.4, 1.5 h room temperature, read-out: EC50

SMILES | EC50 [1, 4] [nM] | EC50 [2, 5] [nM] | EC50 ([3]; FIG. 2a, read-out: EC50) [nM] | EC50 [1] [nM] | EC50 [2] [nM] | EC50 ([3]; EC50, FIG. 2a) [nM] | EC50 ([3]; EC50, FIG. 2h) [nM]
CCCN1C(=O)OC(C)c2cc(NS(=O)(=O)Cc3c(F)c(F)c(C)c(F)c3F)ccc21 (stereo not shown) [Compound 0224] | 149 | 120 | 90.1 |  |  |  | 
CC1=CC(=O)CC(C)(C)[C@@]1(O)/C=C/C(C)=C\C(=O)O [ABA, Abscisic Acid, reference compound] |  |  |  | 1200 | 1160 | 3570 | 4220
CCCN1C(=O)OC(C)(C)c2cc(NS(=O)(=O)Cc3c(F)c(F)c(C)c(F)c3F)ccc21 [Compound 0304] | 167 | 120 | 148 |  |  |  | 
